Publication doi:10.1101/2025.10.23.684218v2, “Development of a dual chemical probe for the USP16 and HDAC6 zinc-finger ubiquitin-binding domain” (biorxiv, 2025)
Like-named read-outs stand apart in the source and are kept apart here.

Columns and labels:
Assay in all cases: biochemical
Set-up in all cases: SPR, steady-state binding to immobilised biotinylated UBD proteins
BRAP = molecular target: T1, BRAP (Homo sapiens, UniProt Q7Z569)
T1 construct: UBD, residues 304-390
T1 sequence (Q7Z569 1-592): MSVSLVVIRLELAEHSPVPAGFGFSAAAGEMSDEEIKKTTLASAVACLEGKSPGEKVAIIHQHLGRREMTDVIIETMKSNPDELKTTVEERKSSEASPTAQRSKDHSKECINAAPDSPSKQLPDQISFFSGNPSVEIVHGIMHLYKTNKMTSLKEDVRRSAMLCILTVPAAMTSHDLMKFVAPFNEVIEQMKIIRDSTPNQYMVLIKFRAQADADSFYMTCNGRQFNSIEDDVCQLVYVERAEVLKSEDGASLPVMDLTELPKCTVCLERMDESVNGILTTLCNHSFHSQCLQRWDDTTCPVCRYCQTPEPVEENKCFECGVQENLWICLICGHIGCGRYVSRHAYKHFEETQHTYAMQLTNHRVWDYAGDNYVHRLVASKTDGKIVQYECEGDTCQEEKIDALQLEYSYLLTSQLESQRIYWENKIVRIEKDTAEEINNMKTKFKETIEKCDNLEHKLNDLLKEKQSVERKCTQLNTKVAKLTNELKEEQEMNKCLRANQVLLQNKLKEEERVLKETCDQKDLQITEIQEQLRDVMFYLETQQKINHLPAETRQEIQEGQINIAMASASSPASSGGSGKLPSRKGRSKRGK

USP3 = molecular target: T2, USP3 (Homo sapiens, UniProt Q9Y6I4)
T2 sequence (Q9Y6I4 1-520): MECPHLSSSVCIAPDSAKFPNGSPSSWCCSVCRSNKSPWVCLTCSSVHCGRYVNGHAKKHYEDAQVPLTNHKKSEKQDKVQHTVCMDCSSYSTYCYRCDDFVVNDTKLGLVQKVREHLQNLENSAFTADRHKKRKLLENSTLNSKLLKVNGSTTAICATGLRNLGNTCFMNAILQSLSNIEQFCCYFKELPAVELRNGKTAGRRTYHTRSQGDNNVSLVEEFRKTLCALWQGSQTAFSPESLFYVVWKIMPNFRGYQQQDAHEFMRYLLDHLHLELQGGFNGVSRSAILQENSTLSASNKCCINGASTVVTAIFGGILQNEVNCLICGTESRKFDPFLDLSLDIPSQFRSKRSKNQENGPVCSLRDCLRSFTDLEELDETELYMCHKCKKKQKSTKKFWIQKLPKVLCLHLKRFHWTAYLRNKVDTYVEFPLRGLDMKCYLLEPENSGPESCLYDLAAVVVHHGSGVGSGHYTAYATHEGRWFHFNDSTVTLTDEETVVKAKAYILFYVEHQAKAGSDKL

USP49 = molecular target: T3, USP49 (Homo sapiens, UniProt Q70CQ1)
T3 construct: UBD, residues 1-115
T3 sequence (Q70CQ1 1-688): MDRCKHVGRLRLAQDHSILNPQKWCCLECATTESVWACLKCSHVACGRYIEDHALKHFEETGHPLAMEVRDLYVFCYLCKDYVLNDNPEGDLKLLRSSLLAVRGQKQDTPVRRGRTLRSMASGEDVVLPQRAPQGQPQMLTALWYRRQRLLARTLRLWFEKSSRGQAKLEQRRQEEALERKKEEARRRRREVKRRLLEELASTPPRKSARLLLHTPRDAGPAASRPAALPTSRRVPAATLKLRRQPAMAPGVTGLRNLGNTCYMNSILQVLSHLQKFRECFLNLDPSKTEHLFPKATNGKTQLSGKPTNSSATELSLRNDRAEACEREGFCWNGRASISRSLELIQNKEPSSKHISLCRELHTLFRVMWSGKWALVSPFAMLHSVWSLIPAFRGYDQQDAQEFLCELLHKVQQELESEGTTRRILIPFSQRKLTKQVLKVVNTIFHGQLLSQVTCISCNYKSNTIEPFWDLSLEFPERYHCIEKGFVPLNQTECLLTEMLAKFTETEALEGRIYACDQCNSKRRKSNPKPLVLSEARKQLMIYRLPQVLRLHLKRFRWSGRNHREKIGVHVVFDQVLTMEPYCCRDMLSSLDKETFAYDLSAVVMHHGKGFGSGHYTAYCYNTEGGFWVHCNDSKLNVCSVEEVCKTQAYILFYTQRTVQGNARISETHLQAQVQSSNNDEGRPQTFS

USP5 = molecular target: T4, USP5 (Homo sapiens, UniProt P45974)
T4 construct: UBD, residues 171-290
T4 sequence (P45974 1-858): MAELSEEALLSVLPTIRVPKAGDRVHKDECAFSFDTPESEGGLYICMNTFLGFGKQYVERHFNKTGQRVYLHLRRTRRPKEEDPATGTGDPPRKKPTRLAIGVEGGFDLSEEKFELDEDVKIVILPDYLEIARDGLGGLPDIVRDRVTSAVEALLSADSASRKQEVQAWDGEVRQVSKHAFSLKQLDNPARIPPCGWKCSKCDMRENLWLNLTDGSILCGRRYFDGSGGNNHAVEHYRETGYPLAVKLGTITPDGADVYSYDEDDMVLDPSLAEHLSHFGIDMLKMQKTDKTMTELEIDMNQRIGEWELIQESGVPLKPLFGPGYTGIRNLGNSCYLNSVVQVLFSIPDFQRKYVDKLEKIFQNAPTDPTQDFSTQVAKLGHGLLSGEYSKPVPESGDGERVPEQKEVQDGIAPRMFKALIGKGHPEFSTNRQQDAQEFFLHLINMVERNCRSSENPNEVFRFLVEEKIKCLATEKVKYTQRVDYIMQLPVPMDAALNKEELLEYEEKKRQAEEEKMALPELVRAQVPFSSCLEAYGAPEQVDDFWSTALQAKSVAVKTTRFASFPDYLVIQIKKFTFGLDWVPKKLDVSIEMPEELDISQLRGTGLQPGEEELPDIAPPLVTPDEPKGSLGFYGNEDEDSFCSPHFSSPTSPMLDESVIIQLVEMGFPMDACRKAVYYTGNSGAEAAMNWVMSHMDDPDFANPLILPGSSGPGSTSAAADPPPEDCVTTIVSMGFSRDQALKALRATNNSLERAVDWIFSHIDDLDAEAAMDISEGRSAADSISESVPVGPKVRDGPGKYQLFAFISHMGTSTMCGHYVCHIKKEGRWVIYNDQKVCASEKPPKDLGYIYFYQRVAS

[1] = read-out: Probe KD (nM) SGC-UBD1031
[2] = read-out: Negative Control KD (nM) SGC-UBD1031N

## C[C@H](NC(=O)Cn1c(CCC(=O)O)nc2c(Cl)cccc2c1=O)c1c(F)cccc1F [compound 15, (S)-3-(8-chloro-3-(2-((1-(2,6-difluorophenyl)ethyl)amino)-2-oxoethyl)-4-oxo-3,4-dihydroquinazolin-2-yl)propanoic acid]
BRAP; [1]
  Kd: > 10000 nM
USP3; [1]
  Kd: > 10000 nM
USP49; [1]
  Kd: 7500 ± 870 nM
USP5; [1]
  Kd: 2600 ± 1400 nM

## C[C@@H](NC(=O)Cn1c(CCC(=O)O)nc2c(Cl)cccc2c1=O)c1c(F)cccc1F [compound 16, (R)-3-(8-chloro-3-(2-((1-(2,6-difluorophenyl)ethyl)amino)-2-oxoethyl)-4-oxo-3,4-dihydroquinazolin-2-yl)propanoic acid]
BRAP; [2]
  Kd: > 10000 nM
USP3; [2]
  Kd: 8700 ± 1800 nM
USP49; [2]
  Kd: 6700 ± 2100 nM
USP5; [2]
  Kd: > 10000 nM
